Measurements reported in patent US9212182B2, “Bicyclic sulfonamide compounds as sodium channel inhibitors” (AMGEN INC., priority 2013, dated 2015).
pIC50: −log10 of the molar value.

molecular target: Nav 1.7 (Homo sapiens (Human), UniProt Q15858); test: in-vitro Nav 1.7 PX (IC50); type: cell-based; conditions: not given
Sequence (Q15858 whole entry): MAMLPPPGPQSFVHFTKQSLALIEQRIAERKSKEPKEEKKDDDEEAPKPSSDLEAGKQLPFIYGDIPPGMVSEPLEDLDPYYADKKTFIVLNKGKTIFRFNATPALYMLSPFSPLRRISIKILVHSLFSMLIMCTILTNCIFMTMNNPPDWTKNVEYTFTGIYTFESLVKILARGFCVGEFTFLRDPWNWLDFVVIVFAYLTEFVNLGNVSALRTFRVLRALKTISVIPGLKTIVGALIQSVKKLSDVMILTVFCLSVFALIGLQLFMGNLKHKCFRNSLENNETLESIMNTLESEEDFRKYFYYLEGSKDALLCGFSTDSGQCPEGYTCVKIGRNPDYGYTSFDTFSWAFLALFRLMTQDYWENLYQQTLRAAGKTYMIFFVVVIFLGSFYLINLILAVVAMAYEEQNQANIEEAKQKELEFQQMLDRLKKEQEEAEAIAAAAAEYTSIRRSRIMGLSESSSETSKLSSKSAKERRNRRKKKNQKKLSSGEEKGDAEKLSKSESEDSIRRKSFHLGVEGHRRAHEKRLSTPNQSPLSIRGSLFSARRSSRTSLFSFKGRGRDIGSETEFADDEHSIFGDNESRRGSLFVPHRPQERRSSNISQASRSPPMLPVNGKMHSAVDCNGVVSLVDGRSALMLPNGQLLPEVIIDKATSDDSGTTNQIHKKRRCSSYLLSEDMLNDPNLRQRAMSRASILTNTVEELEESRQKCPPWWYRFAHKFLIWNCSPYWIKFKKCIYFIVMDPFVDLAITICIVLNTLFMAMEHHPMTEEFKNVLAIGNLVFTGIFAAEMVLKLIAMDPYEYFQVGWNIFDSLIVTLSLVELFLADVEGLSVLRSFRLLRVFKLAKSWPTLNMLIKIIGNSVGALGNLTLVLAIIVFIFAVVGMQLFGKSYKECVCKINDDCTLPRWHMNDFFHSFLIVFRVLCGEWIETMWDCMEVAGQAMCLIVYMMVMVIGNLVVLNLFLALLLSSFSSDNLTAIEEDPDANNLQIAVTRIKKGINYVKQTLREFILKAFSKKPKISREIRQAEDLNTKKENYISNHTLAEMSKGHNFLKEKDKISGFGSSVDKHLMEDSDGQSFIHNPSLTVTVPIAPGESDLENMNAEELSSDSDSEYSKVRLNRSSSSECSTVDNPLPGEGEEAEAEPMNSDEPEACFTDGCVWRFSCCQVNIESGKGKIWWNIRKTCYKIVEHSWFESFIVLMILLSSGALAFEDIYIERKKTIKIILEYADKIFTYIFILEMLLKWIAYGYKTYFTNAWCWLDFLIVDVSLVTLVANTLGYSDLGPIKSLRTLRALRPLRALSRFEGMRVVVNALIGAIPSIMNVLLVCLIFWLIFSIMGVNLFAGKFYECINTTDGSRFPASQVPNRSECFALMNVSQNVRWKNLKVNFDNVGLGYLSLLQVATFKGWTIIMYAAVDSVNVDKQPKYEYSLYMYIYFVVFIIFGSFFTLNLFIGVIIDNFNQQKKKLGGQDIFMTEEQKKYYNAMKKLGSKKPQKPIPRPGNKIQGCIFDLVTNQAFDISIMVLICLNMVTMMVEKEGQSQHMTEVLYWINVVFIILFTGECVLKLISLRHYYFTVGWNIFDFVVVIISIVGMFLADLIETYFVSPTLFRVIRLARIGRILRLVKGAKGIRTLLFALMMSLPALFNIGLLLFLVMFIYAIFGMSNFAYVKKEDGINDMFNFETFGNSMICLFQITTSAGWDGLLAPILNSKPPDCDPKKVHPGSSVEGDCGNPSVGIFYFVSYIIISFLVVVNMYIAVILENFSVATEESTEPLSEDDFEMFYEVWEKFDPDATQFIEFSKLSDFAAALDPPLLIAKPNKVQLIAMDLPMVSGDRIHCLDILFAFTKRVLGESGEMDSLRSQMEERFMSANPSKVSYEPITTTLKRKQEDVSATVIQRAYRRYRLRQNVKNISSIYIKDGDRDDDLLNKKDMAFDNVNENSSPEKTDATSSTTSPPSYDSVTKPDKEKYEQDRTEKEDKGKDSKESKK

pIC50 | Compound
6.97 | COc1cc(-c2ccc(F)cc2)c(F)cc1-n1c(=O)cnc2cc(S(=O)(=O)Nc3ccon3)ccc21 [Example 1141, 1-(2,4′-difluoro-5-methoxy-4-biphenylyl)-N-3-isoxazolyl-2-oxo-1,2-dihydro-6-quinoxalinesulfonamide]
7.10 | COc1ccc(-c2cccc(F)c2)cc1-n1c(=O)ccc2cc(S(=O)(=O)Nc3ccon3)ccc21 [Example 482, 1-(3′-fluoro-4-methoxy-3-biphenylyl)-N-3-isoxazolyl-2-oxo-1,2-dihydro-6-quinolinesulfonamide]
6.53 | COc1ccc(-c2cncc(C(F)(F)F)c2)cc1-n1c(=O)ccc2cc(S(=O)(=O)Nc3ccon3)ccc21 [Example 492, N-3-isoxazolyl-1-(2-methoxy-5-(5-(trifluoromethyl)-3-pyridinyl)phenyl)-2-oxo-1,2-dihydro-6-quinolinesulfonamide]

Compound | pIC50
COc1cc(-c2cccc(Cl)c2)ccc1-n1c(=O)ccc2cc(S(=O)(=O)Nc3ccon3)ccc21 [Example 351, M-1-(3′-chloro-3-methoxy-[1,1′-biphenyl]-4-yl)-N-(isoxazol-3-yl)-2-oxo-1,2-dihydroquinoline-6-sulfonamide] | 5.26
COc1cc(-c2cccc(F)c2)c(Cl)cc1-n1c(=O)ccc2cc(S(=O)(=O)Nc3ccon3)c(F)cc21 (atropisomer, axis not shown; (P)) [Example 358, (P)-1-(2-chloro-3′-fluoro-5-methoxy-[1,1′-biphenyl]-4-yl)-7-fluoro-N-(isoxazol-3-yl)-2-oxo-1,2-dihydroquinoline-6-sulfonamide] | 5.33

same assay, conditions: in-vitro Nav 1.7 PX data

Compound | pIC50
COc1ccc(-c2ccc(C(F)(F)F)cc2)cc1-n1c(=O)ccc2cc(S(=O)(=O)Nc3ccon3)ccc21 [Example 843, N-3-isoxazolyl-1-(4-methoxy-4′-(trifluoromethyl)-3-biphenylyl)-2-oxo-1,2-dihydro-6-quinolinesulfonamide] | 7.64
COc1cc(-c2ccc(Cl)c(C#N)c2)c(F)cc1-n1c(=O)ccc2cc(S(=O)(=O)Nc3ncc(F)cn3)ccc21 [Example 893, 1-(4′-chloro-3′-cyano-2-fluoro-5-methoxy-4-biphenylyl)-N-(5-fluoro-2-pyrimidinyl)-2-oxo-1,2-dihydro-6-quinolinesulfonamide] | 7.89
COc1cc(Cl)cc(-c2cc(OC)c(-n3c(=O)ccc4cc(S(=O)(=O)Nc5cccnn5)ccc43)cc2F)c1 [Example 930, 1-(3′-chloro-2-fluoro-5,5′-dimethoxy-4-biphenylyl)-2-oxo-N-3-pyridazinyl-1,2-dihydro-6-quinolinesulfonamide] | 7.85
COc1cc(-c2ccc(Cl)cc2)c(F)cc1-n1c(=O)ccc2cc(S(=O)(=O)Nc3cccnn3)ccc21 [Example 746, 1-(4′-chloro-2-fluoro-5-methoxy-4-biphenylyl)-2-oxo-N-3-pyridazinyl-1,2-dihydro-6-quinolinesulfonamide] | 7.62
COc1cc(-c2cc(C)ccc2F)c(C)cc1-n1c(=O)ccc2cc(S(=O)(=O)Nc3ncccn3)ccc21 [Example 970, 1-(2′-fluoro-5-methoxy-2,5′-dimethyl-4-biphenylyl)-2-oxo-N-2-pyrimidinyl-1,2-dihydro-6-quinolinesulfonamide] | 7.62
COc1cc(-c2ccc(F)c(F)c2)c(C)cc1-n1c(=O)ccc2cc(S(=O)(=O)Nc3ncccn3)ccc21 [Example 958, 1-(3′,4′-difluoro-5-methoxy-2-methyl-4-biphenylyl)-2-oxo-N-2-pyrimidinyl-1,2-dihydro-6-quinolinesulfonamide] | 7.55
1-(4′-chloro-2-fluoro-3′,5-dimethyl-4-biphenylyl)-2-oxo-N-3-pyridazinyl-1,2-dihydro-6-quinolinesulfonamide [Example 973] | 7.05
COc1cc(-c2cc(OC)c(-n3c(=O)ccc4cc(S(=O)(=O)Nc5ncco5)ccc43)cc2F)ccc1F [Example 1011, 1-(2,4′-difluoro-3′,5-dimethoxy-4-biphenylyl)-N-1,3-oxazol-2-yl-2-oxo-1,2-dihydro-6-quinolinesulfonamide] | 6.68
COc1cc(-c2ccc(F)c(C)c2)c(F)cc1-n1c(=O)ccc2cc(S(=O)(=O)Nc3ncccn3)ccc21 [Example 940, 1-(2,4′-difluoro-5-methoxy-3′-methyl-4-biphenylyl)-2-oxo-N-2-pyrimidinyl-1,2-dihydro-6-quinolinesulfonamide] | 7.47
COc1cc(-c2cccc(C(F)(F)F)c2)ccc1-n1c(=O)ccc2cc(S(=O)(=O)Nc3ncc(F)cn3)ccc21 [Example 917, N-(5-fluoro-2-pyrimidinyl)-1-(3-methoxy-3′-(trifluoromethyl)-4-biphenylyl)-2-oxo-1,2-dihydro-6-quinolinesulfonamide] | 7.51
COc1cc(-c2cc(OC)c(-n3c(=O)ccc4cc(S(=O)(=O)Nc5ncccn5)ccc43)cc2C)ccc1C [Example 966, 1-(3′,5-dimethoxy-2,4′-dimethyl-4-biphenylyl)-2-oxo-N-2-pyrimidinyl-1,2-dihydro-6-quinolinesulfonamide] | 7.19
COc1cc(-c2cc(F)cc(Cl)c2)c(F)cc1-n1c(=O)ccc2cc(S(=O)(=O)Nc3cnsn3)ccc21 [Example 922, 1-(3′-chloro-2,5′-difluoro-5-methoxy-4-biphenylyl)-2-oxo-N-1,2,5-thiadiazol-3-yl-1,2-dihydro-6-quinolinesulfonamide] | 8.40
COc1cc(-c2cc(F)cc(C(F)(F)F)c2)ccc1-n1c(=O)ccc2cc(S(=O)(=O)Nc3cnccn3)ccc21 [Example 1094, 1-(3′-fluoro-3-methoxy-5′-(trifluoromethyl)-4-biphenylyl)-2-oxo-N-2-pyrazinyl-1,2-dihydro-6-quinolinesulfonamide] | 7.16
COc1ccc(-c2cccc(Cl)c2F)cc1-n1c(=O)ccc2cc(S(=O)(=O)Nc3ccon3)ccc21 [Example 887, 1-(3′-chloro-2′-fluoro-4-methoxy-3-biphenylyl)-N-3-isoxazolyl-2-oxo-1,2-dihydro-6-quinolinesulfonamide] | 7.52

Results, then the compound that gave them:

pIC50 | Compound
7.70 | COc1cc(-c2ccc(Cl)cc2)c(F)cc1-n1c(=O)ccc2cc(S(=O)(=O)Nc3cc(C)ncn3)ccc21 [Example 752, 1-(4′-chloro-2-fluoro-5-methoxy-4-biphenylyl)-N-(6-methyl-4-pyrimidinyl)-2-oxo-1,2-dihydro-6-quinolinesulfonamide]
6.89 | COc1cc(-c2ccc(Cl)c(C)c2)c(F)cc1-n1c(=O)ccc2cc(S(=O)(=O)Nc3cc(C)on3)ccc21 [Example 931, 1-(4′-chloro-2-fluoro-5-methoxy-3′-methyl-4-biphenylyl)-N-(5-methyl-3-isoxazolyl)-2-oxo-1,2-dihydro-6-quinolinesulfonamide]
8.05 | COc1cc(-c2cc(F)cc(C(F)(F)F)c2)c(F)cc1-n1c(=O)ccc2cc(S(=O)(=O)Nc3ccon3)ccc21 [Example 711, 1-(2,3′-difluoro-5-methoxy-5′-(trifluoromethyl)-4-biphenylyl)-N-3-isoxazolyl-2-oxo-1,2-dihydro-6-quinolinesulfonamide]
7.52 | COc1cc(-c2ccc(OC(F)F)cc2)c(F)cc1-n1c(=O)ccc2cc(S(=O)(=O)Nc3ccon3)ccc21 [Example 763, 1-(4′-(difluoromethoxy)-2-fluoro-5-methoxy-4-biphenylyl)-N-3-isoxazolyl-2-oxo-1,2-dihydro-6-quinolinesulfonamide]
8.05 | COc1cc(Cl)c(-c2cc(F)cc(Cl)c2)cc1-n1c(=O)ccc2cc(S(=O)(=O)Nc3ccon3)ccc21 (atropisomer, axis not shown; (P)) [Example 614, (P)-1-(3′,6-dichloro-5′-fluoro-4-methoxy-3-biphenylyl)-N-3-isoxazolyl-2-oxo-1,2-dihydro-6-quinolinesulfonamide]
7.82 | COc1cc(-c2cc(OC)c(-n3c(=O)ccc4cc(S(=O)(=O)Nc5ccon5)ccc43)cc2F)ccc1F [Example 713, 1-(2,4′-difluoro-3′,5-dimethoxy-4-biphenylyl)-N-3-isoxazolyl-2-oxo-1,2-dihydro-6-quinolinesulfonamide]
7.92 | COc1cc(-c2ccc(Cl)c(C)c2)c(F)cc1-n1c(=O)ccc2cc(S(=O)(=O)Nc3cccnn3)ccc21 (atropisomer, axis not shown; (P)) [Example 695, (P)-1-(4′-chloro-2-fluoro-5-methoxy-3′-methyl-4-biphenylyl)-2-oxo-N-3-pyridazinyl-1,2-dihydro-6-quinolinesulfonamide]
7.27 | COc1cc(-c2cccc(OC)c2C)c(F)cc1-n1c(=O)ccc2cc(S(=O)(=O)Nc3ccon3)ccc21 [Example 735, 1-(2-fluoro-3′,5-dimethoxy-2′-methyl-4-biphenylyl)-N-3-isoxazolyl-2-oxo-1,2-dihydro-6-quinolinesulfonamide]

same assay, conditions: in-vitro Nav 1.7 PX data, Table 4

pIC50 | Compound
7.70 | COc1cc(-c2cnc(OC)c(Cl)c2)c(F)cc1-n1c(=O)ccc2cc(S(=O)(=O)Nc3ccc(F)cn3)ccc21 (atropisomer, axis not shown; (P)) [Example 1161, (P)-1-(4-(5-chloro-6-methoxy-3-pyridinyl)-5-fluoro-2-methoxyphenyl)-N-(5-fluoro-2-pyridinyl)-2-oxo-1,2-dihydro-6-quinolinesulfonamide]

same assay, conditions: in-vitro PatchXpress (PX)

pIC50 | Compound
6.00 | COc1cc(-c2cc(C)cc(Cl)c2)c(F)cc1-n1c(=O)ccc2cc(S(=O)(=O)Nc3ccon3)ccc21 (atropisomer, axis not shown; (M)) [Example 507, (M)-1-(3′-chloro-2-fluoro-5-methoxy-5′-methyl-4-biphenylyl)-N-3-isoxazolyl-2-oxo-1,2-dihydro-6-quinolinesulfonamide]
6.55 | COc1cc(-c2cnc(C)c(Cl)c2)c(F)cc1-n1c(=O)ccc2cc(S(=O)(=O)Nc3ccon3)ccc21 [Example 532, 1-(4-(5-chloro-6-methyl-3-pyridinyl)-5-fluoro-2-methoxyphenyl)-N-3-isoxazolyl-2-oxo-1,2-dihydro-6-quinolinesulfonamide]
6.00 | COc1cc(N2CC(F)(F)C2)c(F)cc1-n1c(=O)ccc2cc(S(=O)(=O)Nc3ccon3)ccc21 [Example 406, 1-(4-(3,3-difluoro-1-azetidinyl)-5-fluoro-2-methoxyphenyl)-N-3-isoxazolyl-2-oxo-1,2-dihydro-6-quinolinesulfonamide]
